Reference: patent publication US20240082342A1, “PEPTIDE THERAPEUTICS FOR INCREASING LUNG CELL VIABILITY” (BOARD OF REGENTS, THE UNIVERSITY OF TEXAS SYSTEM, priority 2018, published 2024)
“Also recorded” adds a separate entry of the source.

Columns and labels:
[1] = test system: A2Cs and lungs of WT mice with CLP injury; test: Cecal ligation puncture (CLP) sepsis-induced ALI in WT mice; format: in vivo, mouse
Description: This model was described in detail in publication of the present inventor and colleagues, Gao, R et al., Am. J. Physiol. Mol. Physiol, 2015, 308:L847-L853.
WT mice were injected IP with vehicle, 1.5 mg/kg of CSP or control peptide (CP) 24 h after CLP injury. Sham-operated mice served as controls. Total RNA isolated from the lungs of these mice 72 h after CLP was quantitated for IL-17A mRNA by real-time PCR.
A2Cs were isolated from the lungs of these mice 72 h after CLP, and immunoblotted to assess changes in PAI-1, p53 and caspase-3 activation. All were increased by 72 h during CLP injury.
Mice were injected IP with CSP or control peptide (CP) 24 h after CLP injury. A2Cs isolated from these mice 72 h after CLP injury were immunoblotted for caveolin-1 and β-actin. Lysates of A2Cs from WT mice exposed to the above conditions were immunoprecipitated (IP) for PP2A-C and immunoblotted (IB) for caveolin-1 (Cav1) to assess their interaction.
Mice treated with or without CSP or CP 24 h after CLP injury were euthanized 72 h later and. lung tissues subjected to H&E staining to assess changes in lung inflammation. Lung homogenates and BAL fluids were analyzed for myeloperoxidase (MPO) to access PMN accumulation.
Mice were IP injected with CSP, CP or vehicle 24 h after CLP injury. Total RNA isolated from A2Cs of WT mice with or without CLP, CLP+CSP or CLP+CP 72 h after CLP induced ALI was reverse transcribed and subjected to real time PCR.
A2Cs isolated from mice with CLP, CLP+CSP or CLP+CP were immunoblotted for SP-C, thyroid transcription factor-1 (TTF-1) and β-actin. TTF-1 controls transcription of SP-C.
A2Cs isolated from mice 72 h after IP injection with CSP or CP alone without CLP injury and the lysates were immunoblotted for changes in SP-C expression. Lysates of A2Cs from uninjured (sham-operated) or CLP mice were also used for comparison.

[2] = test system: AECs from nL overexpressing CAV1, p53 or PAI-1; test: AECs transduced with Ad-CAV1, Ad-p53 or Ad-PAI-1; format: cell-based, human
Description: Expression of CAV1, p53, or PAI-1 in AECs. AECs isolated from nL were separately transduced with Ad-CAV1 or Ad-p53 or Ad-PAI-1. AECs transduced with Ad-Ev were used as controls. In a separate experiment, AECs from nL in culture dishes were treated with Lv-p53 or Lv-PAI-1 shRNA to suppress its baseline expression before treating these cells with CSE. Naive AECs and AECs exposed to non-specific control shRNA was used as controls.

“DGIWKASFTTFTVTKYWFYR (listed as Homo sapiens) [CSP, 20 residue caveolin-1 scaffolding domain peptide]” was tested, and the “IL-17A in lung tissues” value ([1]; 1.5 mg/kg IP 24 h after CLP, 72 h) was “suppressed sepsis induced IL-17A”, the “miR-34a expression in A2Cs (real time PCR, normalized to U6)” value ([1]; 72 h after CLP) was “significantly reduced” and the “A2C apoptosis, p53 and PAI-1 expression” value ([1]; IP 24 h after CLP, 72 h) was “concurrent inhibition of A2C apoptosis and p53 and PAI-1 expression”. The “A2C caveolin-1 interaction with PP2A-C (IP/IB)” value ([1]; IP 24 h after CLP, 72 h) was “inhibited the A2C caveolin-1 interaction with PP2A-C”, the “accumulation of PMN (MPO, H&E)” value ([1]; IP 24 h after CLP, 72 h) was “significantly inhibited accumulation of PMN” and the “SP-C expression by A2Cs” value ([1]; normal lungs, without CLP injury, 72 h after IP) was “induced SP-C expression”. For the same substance, the “SP-C expression by A2Cs” value ([1]; sepsis-induced ALI) was “induction of SP-C expression” and the “inhibition of miR-34a in A2Cs” value ([1]; vs CLP or CLP+CP, 3 days after injury) was 7 fold.
For “FTTFTVT (listed as Homo sapiens) [CSP7, heptapeptide fragment of the caveolin-1 scaffolding domain peptide CSP]”, the “MUC5AC, HDAC6, FOXA3, LC3, FOXA2, acetylated alpha-tubulin; mucus hypersecretion and cilia disassembly” value ([2]; Ad-CAV1 transduced AECs) was “can mitigate the mucus hypersecretion and cilia disassembly; also recorded: reduced CAV1-induced MUC5AC, HDAC6, FOXA3, and LC3 while restoring FOXA2 and acetylated alpha-tubulin”, the “p53 and PAI-1 expression” value ([2]; Ad-CAV1 transduced AECs) was “reduced the expression of p53 and PAI-1” and the “MUC5AC, HDAC6, FOXA3, p53, LC3, acetylated alpha-tubulin” value ([2]; Ad-PAI-1 transduced AECs) was “reversed”. The “MUC5AC, acetylated alpha-tubulin, FOXA2, CAV1, p53, PAI-1” value ([2]; Ad-p53 transduced AECs) was “reduced MUC5AC and restored acetylated alpha-tubulin and FOXA2, while inhibiting CAV1, p53, and PAI-1”.
